ChEMBL document CHEMBL1155294, “Synthesis and evaluation of 6-methyl-3-phenylcoumarins as potent and selective MAO-B inhibitors” (Bioorg Med Chem Lett, 2009)

What was measured:
Homo sapiens = species on record: Homo sapiens; experiment: Selectivity index, ratio of IC50 for human recombinant MAOA to IC50 for human recombinant MAOB
[1] = molecular target: T1, Amine oxidase [flavin-containing] A (Homo sapiens, UniProt P21397); experiment: Inhibition of human recombinant MAOA expressed in BTI cells at 100 uM; type: cell-based
T1 sequence (P21397 whole entry): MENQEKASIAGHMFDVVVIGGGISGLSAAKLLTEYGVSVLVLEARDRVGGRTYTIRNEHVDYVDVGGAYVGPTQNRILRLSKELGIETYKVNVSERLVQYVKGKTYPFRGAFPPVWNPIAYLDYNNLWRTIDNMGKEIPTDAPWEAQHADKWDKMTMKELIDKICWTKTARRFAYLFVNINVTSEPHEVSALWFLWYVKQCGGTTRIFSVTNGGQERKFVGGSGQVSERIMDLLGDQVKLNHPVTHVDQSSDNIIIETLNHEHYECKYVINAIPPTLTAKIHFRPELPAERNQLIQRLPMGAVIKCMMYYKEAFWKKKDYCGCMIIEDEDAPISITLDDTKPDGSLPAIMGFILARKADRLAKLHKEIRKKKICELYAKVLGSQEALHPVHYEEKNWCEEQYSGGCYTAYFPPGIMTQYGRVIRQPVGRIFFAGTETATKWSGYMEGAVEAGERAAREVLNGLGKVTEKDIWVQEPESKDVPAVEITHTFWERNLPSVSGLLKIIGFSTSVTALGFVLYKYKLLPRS

[2] = molecular target: T2, Amine oxidase [flavin-containing] B (Homo sapiens, UniProt P27338); experiment: Inhibition of human recombinant MAOB expressed in BTI cells at 100 uM; type: cell-based
T2 sequence (P27338 whole entry): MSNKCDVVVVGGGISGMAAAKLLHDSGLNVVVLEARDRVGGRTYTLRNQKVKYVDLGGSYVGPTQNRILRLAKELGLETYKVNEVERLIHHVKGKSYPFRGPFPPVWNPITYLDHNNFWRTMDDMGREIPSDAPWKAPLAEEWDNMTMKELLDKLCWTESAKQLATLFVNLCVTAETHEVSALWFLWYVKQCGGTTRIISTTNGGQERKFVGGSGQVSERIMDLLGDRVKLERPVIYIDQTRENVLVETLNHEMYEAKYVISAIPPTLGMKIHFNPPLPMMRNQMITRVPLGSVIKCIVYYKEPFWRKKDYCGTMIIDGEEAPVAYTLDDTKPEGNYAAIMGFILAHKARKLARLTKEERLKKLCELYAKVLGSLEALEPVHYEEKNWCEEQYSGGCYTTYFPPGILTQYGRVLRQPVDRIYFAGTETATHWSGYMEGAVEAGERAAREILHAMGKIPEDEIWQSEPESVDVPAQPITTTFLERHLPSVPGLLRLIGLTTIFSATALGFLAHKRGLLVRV

[3] = molecular target: T2, Amine oxidase [flavin-containing] B; experiment: Inhibition of human recombinant MAOB expressed in BTI cells; type: cell-based

SMILES | Ratio IC50 (Homo sapiens) | inhibition (INH) [1] | IC50 [2] | IC50 [3]
COc1ccc(-c2cc3cc(C)ccc3oc2=O)cc1 | > 7660 | Not Active | – | –
Cc1ccc2oc(=O)c(-c3ccc(O)cc3)cc2c1 | – | Not Active | – | –
COc1ccccc1-c1cc2cc(C)ccc2oc1=O | – | Not Active | Not Active | –
COc1cccc(-c2cc3cc(C)ccc3oc2=O)c1 | > 125000 | Not Active | – | 0.803 nM
